What was measured:
Assay type in all cases: in vivo
[1] = system: DNCB-induced atopic dermatitis in Balb/c mice; assay: Efficacy evaluation test of DNCB-induced atopic dermatitis in Balb/c mice model (Biological Example 1); conditions: BID × 10; for Inhibitory Rate of Ear Swelling Degree / Inhibitory Rate of Ear Thickness / Ear Thickness Change, Day 1 / Ear Thickness Change, Day 10 / Weight Changes of Animals, Day 10 / Ear Thickness Change, Day 17 / Weight Changes of Animals, Day 17 / Ear Thickness Change, Day 18 / Weight Changes of Animals, Day 18 / Ear Thickness / Ear Swelling Degree / IgE Concentration / Inhibitory Rate of IgE Concentration: 1 mg/mouse on ear; for Inhibitory Rate of Ear Swelling Degree / Inhibitory Rate of Ear Thickness / Ear Thickness / Ear Swelling Degree / IgE Concentration / Inhibitory Rate of IgE Concentration: 18th day; for Inhibitory Rate of Ear Swelling Degree / Inhibitory Rate of Ear Thickness / Inhibitory Rate of IgE Concentration: vs model and blank control; for Weight Changes of Animals, Day 1 / Inhibitory Rate of Ear Thickness / Ear Thickness Change, Day 1 / Ear Thickness Change, Day 10 / Weight Changes of Animals, Day 10 / Ear Thickness Change, Day 17 / Weight Changes of Animals, Day 17 / Ear Thickness Change, Day 18 / Weight Changes of Animals, Day 18 / Ear Thickness: Balb/c mice; for Weight Changes of Animals, Day 1: 1 mg/mouse (50 mg/mL, 20 μL) on ear; for Weight Changes of Animals, Day 1 / Ear Thickness Change, Day 1 / Ear Thickness Change, Day 10 / Weight Changes of Animals, Day 10 / Ear Thickness Change, Day 17 / Weight Changes of Animals, Day 17 / Ear Thickness Change, Day 18 / Weight Changes of Animals, Day 18: Mean ± S.D.; for Ear Thickness: Table 4; for Ear Swelling Degree: right minus left ear piece weight (8 mm punch); for IgE Concentration / Inhibitory Rate of IgE Concentration: serum
Protocol: 60 healthy male SPF Balb/c mice, each of which the body weight was 19-21 g, were randomly divided into 6 groups by body weight. There were 10 mice in each group.
Before the test, the hair around the right ear of the mouse was removed to reduce the interference in the drug adhesion to the hair.
The start of the test was recorded as Day 1. The specific time for measuring ear thickness was slightly adjusted based on FIG. 1. After the end of the 18th day of the test, blood was taken from each animal to detect the concentration of immunoglobulin (IgE) in the serum (in accordance with the kit instructions). Both ears of the animal were cut off. Ear pieces were cut by an 8 mm punch at the fixed position of the ears and weighed. Differences in the swelling degrees of two ears were calculated.
The changes in mouse ear thickness and the ear weights of the same area and the IgE concentrations in the serum among different groups on the 18th day were analyzed and compared statistically with One-Way Anova in SPSS 17, respectively. The G test method was used to delete outliers. p<0.05 indicated there were statistical differences. Ear swelling degree (mg)=right ear weight (mg)−left ear weight (mg); Ear thickness change (mm)=right ear thickness (mm)−left ear thickness (mm); Inhibitory rate of ear swelling degree (%)=1−(ear swelling degree of drug administration group−ear swelling degree of blank control group)/(ear swelling degree of model control group−ear swelling degree of blank control group)×100%; Inhibitory rate of ear thickness change (%)=1−(ear thickness change of drug administration group−ear thickness change of blank control group)/(ear thickness change of model control group−ear thickness change of blank control group)×100%; Inhibitory rate of IgE (%)=1−(IgE concentration in administration group−IgE concentration in blank control group)/(IgE concentration in model control group−IgE concentration in blank control group)×100%.

[2] = system: Phorbol ester (TPA)-induced ear swelling in mice; assay: Inhibition of phorbol ester (TPA)-induced ear swelling in mice (Biological Example 4); conditions: ICR mice, 30 mg/mL in acetone, 40 μL in 2 administrations on right ear; 5 hours after TPA modeling
Protocol: 40 male ICR mice were selected and divided into 5 groups. There were 8 mice in each group.
(§1) Before the test, the animals were grouped and the hair around the right ear of the mice was removed.
20 μL of respective drug was applied to the animals in each test group (a blank solvent was applied to the model control group). Modeling and induction were carried out after 1 h 10 min. Except for the blank group, 20 μL of TPA at a concentration of 125 μg/mL were applied to the right ears of the animals for induction. After induction for 10 minutes, 20 μL of respective drug was applied to the right ears of the animals in each test group (a blank solvent was applied to the model control group).
(§2) After modeling for 5 hours, ear pieces of both sides on the same location of animals in each group were taken with a punch and weighed to calculate the ear swelling degree, ear swelling rate and inhibitory rate.
(§3) The ear swelling degree and ear swelling rate after modeling and administration for 5 hours were analyzed and tested with One-Way ANOVA multiple-group test index in SPSS17.0. P<0.05 indicated there were statistical differences. Ear swelling degree (mg)=right ear weight (mg)−left ear weight (mg); Ear swelling rate (%)=(right ear weight−left ear weight)/left ear weight×100%; Inhibitory rate of ear swelling degree (%)=1−(ear swelling degree of drug administration group−ear swelling degree of blank control group)/(ear swelling degree of model control group−ear swelling degree of blank control group)×100%.

[3] = system: Phorbol ester (TPA)-induced ear swelling in mice; assay: Inhibition of phorbol ester (TPA)-induced ear swelling in mice (Biological Example 6); conditions: ICR mice, 5 hours after TPA modeling
Protocol: (§4) 72 male ICR mice were selected and divided into 9 groups. There were 8 mice in each group.
as §1
(§5) 20 μL of respective drug was applied to the animals in each test group (a blank solvent was applied to the model control group). Modeling and induction were carried out after 1 h 10 min. Except for the blank group, 20 μL of TPA at a concentration of 125 μg/mL were applied to the right ears of the animals for induction. After induction for 10 minutes, 20 μL of respective drug were applied to the right ears of the animals in each test group (a blank solvent was applied to the model control group).
After modeling for 5 hours, ear pieces of both sides at the same location of animals in each group were taken with a punch and weighed to calculate the ear swelling degree, ear swelling rate and inhibitory rate.
as §3, with “P<0.05 indicated there were statistical differences.” left out, “(%)=1−(swelling” for “(%)=1−(ear swelling”, “group−swelling” for “group−ear swelling”, “group)/(swelling” for “group)/(ear swelling”

ICR mice = assay: Acute toxicity test of single gavage in mice (Biological Example 9); conditions: ICR mice, single gavage 2000 mg/Kg; for Clinical observation: appearance, breath, behavior, reflex and defecation: male and female, observed 15 days; for Dissection and general observation of each organ / Organ indexes: end of the test
Protocol: 30 healthy ICR mice of SPF grade were randomly divided into 5 groups according to the gender segment, in which 15 mice were male and 15 mice were female. There were 3 mice/gender/group. There were 6 mice in each group, in which 3 mice were male and 3 mice were female.
Single administration by gavage was carried out. The symptoms and responses of all the animals were observed after the administration and were recorded faithfully. The test was observed continuously for 15 days. The symptoms of the animals were recorded. After the test, the tissues and organs of all the animals were weighed, observed and recorded. The specimens were kept.
Body weight, appearance, breath, behavior, reflex and defecation.

[4] = system: Phorbol ester (TPA)-induced ear swelling in mice; assay: Inhibition of phorbol ester (TPA)-induced ear swelling in mice (Biological Example 5); conditions: ICR mice, 5 hours after TPA modeling
Protocol: as §4, §1, §5, §2, §3

[5] = 2 mg/mouse on right ear, (right−left)/left ear weight
[6] = 2 mg/mouse on right ear, vs model and blank control
[7] = 50 mg/mL in acetone, 40 μL in 2 administrations (2 mg/mouse)

Structure (SMILES)	Inhibitory Rate of Ear Swelling Degree [1] [%]	Weight Changes of Animals, Day 1 [1] [g]	Inhibitory Rate of Ear Thickness [1] [%]	Ear Thickness Change, Day 1 [1] [mm]	Ear Thickness Change, Day 10 [1] [mm]	Weight Changes of Animals, Day 10 [1] [g]	Ear Thickness Change, Day 17 [1] [mm]	Weight Changes of Animals, Day 17 [1] [g]	Ear Thickness Change, Day 18 [1] [mm]	Weight Changes of Animals, Day 18 [1] [g]	Ear Thickness [1] [mm]	Ear Swelling Degree [1] [mg]	IgE Concentration [1] [ng/mL]	Inhibitory Rate of IgE Concentration [1] [%]	Inhibitory Rate of Ear Swelling Degree [2] [%]	Clinical observation: appearance, breath, behavior, reflex and defecation (ICR mice)	Dissection and general observation of each organ (ICR mice)	Organ indexes (ICR mice)	also measured
CCOc1cc(C(CC(=O)OC)N2C(=O)c3cccc(NC(C)=O)c3C2=O)ccc1OC (stereo not drawn) [Example 1, methyl 3-(4-acetamido-1,3-dioxoisoindolin-2-yl)-3-(3-ethoxy-4-methoxyphenyl)propionate]	21.3	21.0 ± 0.8	22.5	0.22 ± 0.02	0.47 ± 0.02	22.4 ± 0.8	0.60 ± 0.08	21.9 ± 1.1	0.64 ± 0.07	22.0 ± 1.3	0.64 ± 0.07	19.9 ± 5.1	6631.4 ± 1431.1	25.6	60.1	–	–	–	–
CCCOc1ccc(C(CC(=O)OC)N2C(=O)c3cccc(NC(C)=O)c3C2=O)cc1OCC (stereo not drawn) [Example 31, methyl 3-(4-acetamido-1,3-dioxoisoindolin-2-yl)-3-(3-ethoxy-4-propoxyphenyl)propionate]	–	–	–	–	–	–	–	–	–	–	–	–	–	–	–	No obvious abnormalities of appearance, breath, behavior,	No obvious abnormalities related to the compounds were	No obvious abnormalities of organ indexes were observed.	Ear Swelling Rate [3, 5]: 34.3 ± 14.9 %; Inhibitory Rate of Ear Swelling Degree [3, 6]: 87.6%; Ear Swelling Degree [3, 7]: 4.9 ± 2.0 mg
CCCOC(=O)CC(c1ccc(OC)c(OCC)c1)N1C(=O)c2cccc(NC(C)=O)c2C1=O (stereo not drawn) [Example 11, propyl 3-(4-acetamido-1,3-dioxoisoindolin-2-yl)-3-(3-ethoxy-4-methoxyphenyl)propionate]	49.2	20.3 ± 1.3	51.5	0.22 ± 0.01	0.33 ± 0.09	21.6 ± 1.1	0.35 ± 0.04	21.2 ± 1.2	0.48 ± 0.06	21.1 ± 1.3	0.48 ± 0.06	12.8 ± 4.9	5854.5 ± 2631.7	36.5	–	No obvious abnormalities of appearance, breath, behavior,	No obvious abnormalities related to the compounds were	No obvious abnormalities of organ indexes were observed.	Ear Swelling Rate [4, 5]: 46.3 ± 35.7 %; Inhibitory Rate of Ear Swelling Degree [4, 6]: 81.7%; Ear Swelling Degree [4, 7]: 6.5 ± 5.0 mg
CCOc1cc([C@@H](CC(=O)OC)N2C(=O)c3cccc(NC(C)=O)c3C2=O)ccc1OC [Example 9, methyl (R)-3-(4-acetamido-1,3-dioxoisoindolin-2-yl)-3-(3-ethoxy-4-methoxyphenyl)propionate]	–	–	–	–	–	–	–	–	–	–	–	–	–	–	54.5	–	–	–	–

Source: patent US11767295B2, “Isoindole derivative” (TIANJIN HEMAY PHARMACEUTICAL CO., LTD., priority 2018, dated 2023)
